According to patent US20070021419A1, “2-Aminophenyl-4-phenylpyrimidines as kinase inhibitors” (Cyclacel Limited, priority 2003, published 2007):

Tests used:
CDK2/cyclin E = CDK2/cyclin E (Homo sapiens, UniProt P24941); experiment: Kinase assay, radioactive phosphate incorporation, CDK2/cyclin E; type: biochemical; conditions: 100 μM ATP, 30° C.; read-out: Kinase inhibition IC50 CDK2/cyclin E
Experimental: (§1) The compounds from the examples above were investigated for their ability to inhibit the enzymatic activity of various protein kinases. This was achieved by measurement of incorporation of radioactive phosphate from ATP into appropriate polypeptide substrates. Recombinant protein kinases and kinase complexes were produced or obtained commercially. Assays were performed using 96-well plates and appropriate assay buffers (typically 25 mM β-glycerophosphate, 20 mM MOPS, 5 MM EGTA, 1 mM DTT, 1 mM Na3VO3, pH 7.4), into which were added 2-4 μg of active enzyme with appropriate substrates. The reactions were initiated by addition of Mg/ATP mix (15 mM MgCl2+100 μM ATP with 30-50 kBq per well of [γ-^32P]-ATP) and mixtures incubated as required at 30° C. Reactions were stopped on ice, followed by filtration through p81 filterplates or GF/C filterplates (Whatman Polyfiltronics, Kent, UK). After washing 3 times with 75 mM aq orthophosphoric acid, plates were dried, scintillant added and incorporated radioactivity measured in a scintillation counter (TopCount, Packard Instruments, Pangbourne, Berks, UK). Compounds for kinase assay were made up as 10 mM stocks in DMSO and diluted into 10% DMSO in assay buffer.

HT29 = experiment: 72-h MTT cytotoxicity assay, HT29; type: cell-based; conditions: Homo sapiens, HT-29, read-out: 72-h MTT IC50 HT29, HT29 cell line
Experimental: (§2) The compounds from the examples above were subjected to a standard cellular proliferation assay using human tumour cell lines obtained from the ATCC (American Type Culture Collection, 10801 University Boulevard, Manessas, Va. 20110-2209, USA). Standard 72-h MTT (thiazolyl blue; 3-[4,5-dimethylthiazol-2-yl]-2,5-diphenyltetrazolium bromide) assays were performed. In short: cells were seeded into 96-well plates according to doubling time and incubated overnight at 37° C. Test compounds were made up in DMSO and a 1/3 dilution series prepared in 100 μL cell media, added to cells (in triplicates) and incubated for 72 ho at 37° C. MTT was made up as a stock of 5 mg/mL in cell media and filter-sterilised. Media was removed from cells followed by a wash with 200 μL PBS. MTT solution was then added at 20 μL per well and incubated in the dark at 37° C. for 4 h. MTT solution was removed and cells again washed with 200 μL PBS. MTT dye was solubilised with 200 μL per well of DMSO with agitation.

CDK7/cyclin H = CDK7/cyclin H (Homo sapiens, UniProt P50613); experiment: Kinase assay, radioactive phosphate incorporation, CDK7/cyclin H; type: biochemical; conditions: 100 μM ATP, 30° C.; read-out: Kinase inhibition IC50 CDK7/cyclin H
Experimental: as §1

Saos-2 = experiment: 72-h MTT cytotoxicity assay, Saos-2; type: cell-based; conditions: Homo sapiens, read-out: 72-h MTT IC50 Saos-2, Saos-2 cell line
Experimental: as §2

CDK4/cyclin D1 = CDK4/cyclin D1 (Homo sapiens, UniProt P11802); experiment: Kinase assay, radioactive phosphate incorporation, CDK4/cyclin D1; type: biochemical; conditions: 100 μM ATP, 30° C.; read-out: Kinase inhibition IC50 CDK4/cyclin D1
Experimental: as §1

A549 = experiment: 72-h MTT cytotoxicity assay, A549; type: cell-based; conditions: Homo sapiens, read-out: 72-h MTT IC50 A549, A549 cell line
Experimental: as §2

GSK3β = GSK3β (Homo sapiens, UniProt P49841); experiment: Kinase assay, radioactive phosphate incorporation, GSK3β; type: biochemical; conditions: 100 μM ATP, 30° C.; read-out: Kinase inhibition IC50 GSK3β
Experimental: as §1

CDK2/cyclin A = CDK2/cyclin A (Homo sapiens, UniProt P24941); experiment: Kinase assay, radioactive phosphate incorporation, CDK2/cyclin A; type: biochemical; conditions: 100 μM ATP, 30° C.; read-out: Kinase inhibition IC50 CDK2/cyclin A
Experimental: as §1

CDK9/cyclin T1 = CDK9/cyclin T1 (Homo sapiens, UniProt P50750); experiment: Kinase assay, radioactive phosphate incorporation, CDK9/cyclin T1; type: biochemical; conditions: 100 μM ATP, 30° C.; read-out: Kinase inhibition IC50 CDK9/cyclin T1
Experimental: as §1

[1] = tested on: transformed human cell lines (A549, HT29, Saos-2); experiment: 72-h MTT cytotoxicity assay, average of cell lines; type: cell-based; conditions: read-out: 72-h MTT IC50 Average, average of A549, HT29, Saos-2
Experimental: as §2

Chain of GSK3β (P49841 whole entry, species assumed): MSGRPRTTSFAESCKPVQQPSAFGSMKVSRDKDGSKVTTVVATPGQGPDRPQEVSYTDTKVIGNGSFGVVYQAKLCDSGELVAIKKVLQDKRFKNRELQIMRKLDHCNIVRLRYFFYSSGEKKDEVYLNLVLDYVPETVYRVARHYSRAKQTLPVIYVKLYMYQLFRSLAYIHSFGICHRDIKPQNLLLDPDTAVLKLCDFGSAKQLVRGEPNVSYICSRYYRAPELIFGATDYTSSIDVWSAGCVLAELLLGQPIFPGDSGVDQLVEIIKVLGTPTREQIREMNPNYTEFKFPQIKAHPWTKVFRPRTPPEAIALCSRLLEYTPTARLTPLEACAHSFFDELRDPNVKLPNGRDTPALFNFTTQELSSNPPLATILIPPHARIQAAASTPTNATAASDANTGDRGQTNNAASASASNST
Chain of CDK9/cyclin T1 (P50750 whole entry, species assumed): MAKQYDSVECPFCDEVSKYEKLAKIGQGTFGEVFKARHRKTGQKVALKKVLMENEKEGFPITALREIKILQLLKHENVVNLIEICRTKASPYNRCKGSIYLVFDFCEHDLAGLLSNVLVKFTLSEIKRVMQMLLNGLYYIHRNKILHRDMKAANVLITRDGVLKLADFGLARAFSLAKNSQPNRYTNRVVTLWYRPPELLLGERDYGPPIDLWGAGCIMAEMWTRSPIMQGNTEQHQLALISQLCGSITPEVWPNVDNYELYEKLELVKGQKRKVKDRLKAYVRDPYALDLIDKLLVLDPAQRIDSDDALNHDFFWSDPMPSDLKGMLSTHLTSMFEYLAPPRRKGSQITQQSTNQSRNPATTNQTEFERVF
Chain of CDK9/cyclin T1 (O60563 whole entry partner, species assumed): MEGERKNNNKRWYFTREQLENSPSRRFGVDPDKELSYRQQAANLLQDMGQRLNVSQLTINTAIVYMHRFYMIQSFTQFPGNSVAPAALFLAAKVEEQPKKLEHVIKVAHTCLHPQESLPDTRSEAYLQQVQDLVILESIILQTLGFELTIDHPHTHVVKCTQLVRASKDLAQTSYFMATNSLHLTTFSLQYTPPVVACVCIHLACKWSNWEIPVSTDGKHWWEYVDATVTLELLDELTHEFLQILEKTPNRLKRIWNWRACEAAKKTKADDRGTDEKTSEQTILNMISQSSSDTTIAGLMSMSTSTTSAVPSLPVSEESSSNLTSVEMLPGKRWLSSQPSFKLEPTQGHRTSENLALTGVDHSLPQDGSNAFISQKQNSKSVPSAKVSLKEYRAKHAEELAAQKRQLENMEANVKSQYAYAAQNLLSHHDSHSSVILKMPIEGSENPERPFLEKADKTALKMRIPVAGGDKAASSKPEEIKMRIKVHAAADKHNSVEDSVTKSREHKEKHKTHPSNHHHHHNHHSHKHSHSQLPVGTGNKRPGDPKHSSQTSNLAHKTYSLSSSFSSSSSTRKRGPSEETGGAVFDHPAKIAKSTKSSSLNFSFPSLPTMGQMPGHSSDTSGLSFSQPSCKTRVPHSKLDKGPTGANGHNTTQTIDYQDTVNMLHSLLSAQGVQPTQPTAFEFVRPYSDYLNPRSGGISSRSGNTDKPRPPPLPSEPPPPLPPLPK
Chain of CDK7/cyclin H (P50613 whole entry, species assumed): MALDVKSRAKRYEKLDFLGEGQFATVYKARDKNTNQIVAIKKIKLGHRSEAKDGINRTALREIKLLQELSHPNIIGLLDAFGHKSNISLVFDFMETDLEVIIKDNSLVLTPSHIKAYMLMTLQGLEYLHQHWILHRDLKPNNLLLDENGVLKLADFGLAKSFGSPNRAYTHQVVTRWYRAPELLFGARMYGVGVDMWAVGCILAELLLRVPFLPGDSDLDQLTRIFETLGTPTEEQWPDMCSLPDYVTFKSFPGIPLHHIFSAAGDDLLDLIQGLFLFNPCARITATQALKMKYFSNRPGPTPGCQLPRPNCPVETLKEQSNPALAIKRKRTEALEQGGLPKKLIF
Chain of CDK7/cyclin H (P51946 whole entry partner, species assumed): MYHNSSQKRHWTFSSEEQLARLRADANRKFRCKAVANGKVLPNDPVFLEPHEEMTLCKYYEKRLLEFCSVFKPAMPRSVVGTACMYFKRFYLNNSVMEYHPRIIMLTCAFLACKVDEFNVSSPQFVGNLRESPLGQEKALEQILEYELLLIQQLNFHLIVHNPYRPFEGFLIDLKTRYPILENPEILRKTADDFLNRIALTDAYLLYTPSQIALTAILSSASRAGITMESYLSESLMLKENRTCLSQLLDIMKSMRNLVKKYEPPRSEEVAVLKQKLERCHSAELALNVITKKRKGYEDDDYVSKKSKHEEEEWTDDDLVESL
Chain of CDK4/cyclin D1 (P11802 whole entry, species assumed): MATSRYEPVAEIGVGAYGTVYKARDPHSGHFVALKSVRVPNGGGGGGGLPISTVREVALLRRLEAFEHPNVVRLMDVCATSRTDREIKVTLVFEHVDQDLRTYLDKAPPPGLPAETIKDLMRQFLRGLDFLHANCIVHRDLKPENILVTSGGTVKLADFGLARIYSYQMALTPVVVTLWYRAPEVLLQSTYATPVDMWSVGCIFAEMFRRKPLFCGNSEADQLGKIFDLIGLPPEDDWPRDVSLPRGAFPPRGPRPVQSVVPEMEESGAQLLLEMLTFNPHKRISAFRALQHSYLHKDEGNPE
Chain of CDK4/cyclin D1 (P24385 whole entry partner, species assumed): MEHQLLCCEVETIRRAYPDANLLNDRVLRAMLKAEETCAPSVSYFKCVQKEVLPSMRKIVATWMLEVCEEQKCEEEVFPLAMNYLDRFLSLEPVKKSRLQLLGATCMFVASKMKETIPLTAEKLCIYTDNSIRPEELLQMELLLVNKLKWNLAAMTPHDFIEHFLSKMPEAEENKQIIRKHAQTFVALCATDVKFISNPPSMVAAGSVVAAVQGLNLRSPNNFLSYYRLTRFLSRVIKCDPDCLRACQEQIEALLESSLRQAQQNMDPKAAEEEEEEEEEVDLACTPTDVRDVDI

Row | Compound | IC50 (CDK2/cyclin E) | IC50 (CDK7/cyclin H) | IC50 (CDK4/cyclin D1) | IC50 (GSK3β) | IC50 (CDK2/cyclin A) | IC50 (CDK9/cyclin T1) | IC50 (HT29) | IC50 (Saos-2) | IC50 (A549) | IC50 [1]
1 | Oc1ccc(Nc2nccc(-c3cccc(Cn4cncn4)c3)n2)cc1 [Compound 33, 4-[4-(3-[1,2,4]triazol-1-ylmethyl-phenyl)-pyrimidin-2-ylamino]-phenol] | 0.14 µM | 1.1 µM | 9.1 µM | 0.12 µM | 2 µM | 0.092 µM | 20.7 µM | 7.4 µM | 10.3 µM | 12.8 ± 7 µM
2 | N#Cc1cccc(Nc2nccc(-c3cccc(Cn4cncn4)c3)n2)c1 [Compound 36, 3-[4-(3-[1,2,4]triazol-1-ylmethyl-phenyl)-pyrimidin-2-ylamino]-benzonitrile] | 0.079 µM | 0.32 µM | 4.7 µM | 0.032 µM | 3.9 µM | 0.009 µM | – | – | – | –
3 | COc1cccc(Nc2nccc(-c3cccc(Cn4cncn4)c3)n2)c1 [Compound 35, (3-Methoxy-phenyl)-[4-(3-[1,2,4]triazol-1-ylmethyl-phenyl)-pyrimidin-2-yl]-amine] | 0.92 µM | 0.58 µM | 0.57 µM | 0.1 µM | 3.2 µM | 0.069 µM | 7.7 µM | 23.2 µM | 15 µM | 15.3 ± 7.7 µM
4 | O=[N+]([O-])c1cccc(-c2ccnc(Nc3ccc(O)cc3)n2)c1 [Compound 1, 4-[4-(3-Nitro-phenyl)-pyrimidin-2-ylamino]-phenol] | 1.6 µM | – | – | – | – | – | 22.9 µM | 44.2 µM | 14.5 µM | 27.2 ± 15.3 µM
5 | O=[N+]([O-])c1cccc(Nc2nccc(-c3cccc(Cn4cncn4)c3)n2)c1 [Compound 30, (3-Nitro-phenyl)-[4-(3-[1,2,4]triazol-1-ylmethyl-phenyl)-pyrimidin-2-yl]-amine] | 0.04 µM | 0.57 µM | – | 0.019 µM | – | 0.002 µM | 7.1 µM | 4.4 µM | 8 µM | 6.5 ± 1.8 µM
6 | c1cc(Cn2cncn2)cc(-c2ccnc(Nc3ccc(N4CCOCC4)cc3)n2)c1 [Compound 32, (4-Morpholin-4-yl-phenyl)-[4-(3-[1,2,4]triazol-1-ylmethyl-phenyl)-pyrimidin-2-yl]-amine] | 4.4 µM | 4 µM | 2.2 µM | 0.37 µM | – | 0.42 µM | 6.1 µM | 40.3 µM | 19.7 µM | 22 ± 17.2 µM
7 | COc1ccc(OC)c(-c2ccnc(Nc3cccc([N+](=O)[O-])c3)n2)c1 [Compound 44, [4-(2,5-Dimethoxy-phenyl)-pyrimidin-2-yl]-(3-nitro-phenyl)-amine] | 17 µM | – | – | 0.49 µM | – | – | 1.3 µM | 1 µM | 1.5 µM | 1.3 ± 0.3 µM
8 | CN(C)c1ccc(Nc2nccc(-c3cccc(Cn4cncn4)c3)n2)cc1 [Compound 43, N,N-Dimethyl-N′-[4-(3-[1,2,4]triazol-1-ylmethyl-phenyl)-pyrimidin-2-yl]-benzene-1,4-diamine] | 3.7 µM | 1.4 µM | 1.9 µM | 0.19 µM | – | 0.53 µM | 7.8 µM | 30.9 µM | 14.9 µM | 17.9 ± 11.8 µM

More lines, main results first:

Row | IC50 (CDK2/cyclin E) | IC50 (CDK7/cyclin H) | IC50 (CDK4/cyclin D1) | IC50 (GSK3β) | IC50 (CDK2/cyclin A) | IC50 (CDK9/cyclin T1) | Compound | IC50 (HT29) | IC50 (Saos-2) | IC50 (A549) | IC50 [1]
9 | 1.3 µM | 1.7 µM | 3.5 µM | 0.32 µM | 9.8 µM | 1.2 µM | Clc1ccc(Nc2nccc(-c3cccc(CNCc4ccccc4)c3)n2)cn1 [Compound 48, {4-[3-(Benzylamino-methyl)-phenyl]-pyrimidin-2-yl}-(6-chloro-pyridin-3-yl)-amine] | 5.1 µM | 20.4 µM | 13.4 µM | 13 ± 7.7 µM
10 | – | 1.6 µM | – | – | – | 2.9 µM | OCC1CCCCN1Cc1cccc(-c2ccnc(Nc3ccc(N4CCOCC4)cc3)n2)c1 (stereo not shown) [Compound 101, (1-{3-[2-(4-Morpholin-4-yl-phenylamino)-pyrimidin-4-yl]-benzyl}-piperidin-2-yl)-methanol] | 6 µM | 25 µM | 17.3 µM | 16.1 ± 9.6 µM
11 | – | 1.4 µM | – | – | – | 0.49 µM | COc1ccc(Nc2nccc(-c3cccc(CN4CCCCC4CO)c3)n2)cn1 (stereo not shown) [Compound 102, (1-{3-[2-(6-Methoxy-pyridin-3-ylamino)-pyrimidin-4-yl]-benzyl}-piperidin-2-yl)-methanol] | 11.1 µM | 23.4 µM | 17 µM | 17.2 ± 6.2 µM
12 | 5.8 µM | 16 µM | 28 µM | 3.6 µM | – | 25 µM | COc1ccc(OC)c(-c2ccnc(Nc3ccc(O)cc3)n2)c1 [Compound 45, 4-[4-(2,5-Dimethoxy-phenyl)-pyrimidin-2-ylamino]-phenol] | 8.1 µM | 17.4 µM | 25.9 µM | 17.1 ± 8.9 µM
13 | – | 36 µM | 11 µM | – | 10 µM | 0.19 µM | COc1ccc(Nc2nccc(-c3cccc(CN4CCN(C)CC4)c3)n2)cn1 [Compound 58, (6-Methoxy-pyridin-3-yl)-{4-[3-(4-methyl-piperazin-1-ylmethyl)-phenyl]-pyrimidin-2-yl}-amine] | 5.7 µM | 9.6 µM | 7 µM | 7.4 ± 2 µM
14 | 1.4 µM | 20 µM | 28 µM | 0.13 µM | – | 1.3 µM | O=[N+]([O-])c1cccc(Nc2nccc(-c3ccc(Cl)c(Cn4cncn4)c3)n2)c1 [Compound 47, [4-(4-Chloro-3-[1,2,4]triazol-1-ylmethyl-phenyl)-pyrimidin-2-yl]-(3-nitro-phenyl)-amine] | – | – | – | –
15 | – | 0.64 µM | – | – | – | 0.14 µM | OCC1CCCCN1Cc1cccc(-c2ccnc(Nc3cccc(O)c3)n2)c1 (stereo not shown) [Compound 103, 3-{4-[3-(2-Hydroxymethyl-piperidin-1-ylmethyl)-phenyl]-pyrimidin-2-ylamino}-phenol] | 7 µM | 5.6 µM | 6.9 µM | 6.5 ± 0.8 µM
16 | 0.3 µM | 0.99 µM | – | 0.03 µM | 0.93 µM | 0.02 µM | COc1ccc(-c2ccnc(Nc3cccc([N+](=O)[O-])c3)n2)cc1 [Compound 94, [4-(4-Methoxy-phenyl)-pyrimidin-2-yl]-(3-nitro-phenyl)-amine] | – | – | – | –
17 | 7 µM | 28 µM | – | 0.37 µM | – | 3 µM | COc1ccc(Nc2nccc(-c3cccc(C#N)c3)n2)cn1 [Compound 51, 3-[2-(6-Methoxy-pyridin-3-ylamino)-pyrimidin-4-yl]-benzonitrile] | 10.3 µM | 67 µM | 35.7 µM | 37.7 ± 28.4 µM
18 | 1.8 µM | 0.65 µM | 9.4 µM | 0.084 µM | – | 0.044 µM | COc1ccc(Nc2nccc(-c3cccc(Cn4cncn4)c3)n2)cn1 [Compound 50, (6-Methoxy-pyridin-3-yl)-[4-(3-[1,2,4]triazol-1-ylmethyl-phenyl)-pyrimidin-2-yl]-amine] | 11.9 µM | 33.8 µM | 14.3 µM | 20 ± 12 µM
19 | – | – | 1.5 µM | 0.09 µM | 1.1 µM | 0.02 µM | COc1ccc(-c2ccnc(Nc3ccc(OC)nc3)n2)cc1 [Compound 124, [4-(4-Methoxy-phenyl)-pyrimidin-2-yl]-(6-methoxy-pyridin-3-yl)-amine] | – | – | – | –
